Series [1] can be described thus: Metabolic (microsomal) stability assay, human liver microsomes (HLM). It is filed as in vitro ADME. The note with it: 1 μM test compound, predicted clearance as percent of liver blood flow.
In the next series the test system is SK-CO-1 cells. The series can be described thus: SK-CO-1 CTG proliferation assay (120 h) (CRC, G12V). Type of series: cell-based. The note with it: Homo sapiens. How it is done:
(§1) SK—CO-1 cells (ATCC HTB-39) are dispensed into black 384-well plates, flat and clear bottom (Greiner, PNr. 781091) at a density of 500 cells per well in 60 μl EMEM (Sigma M5650)+10% FCS (fetal calf serum, HyClone, SH30084.03). Cells are incubated overnight at 37° C. in a humidified tissue culture incubator at 5% CO2. Compounds (10 mM stock in DMSO) are added at logarithmic dose series using the ECHO acoustic liquid handler system (Beckman Coulter), normalizing for added DMSO and including DMSO controls. All compound treatments are performed in technical duplicates. For the TO time point measurement, untreated cells are analyzed at the time of compound addition. Plates are incubated for 120 h, and cell viability is measured using CellTiter-Glo luminescent cell viability reagent (Promega product code G7570). Viability (stated as percent of control) is defined as relative luminescence units RLU of each well divided by the RLU of cells in DMSO controls. IC50 values are determined from viability measurements by non-linear regression using a four-parameter model.
(§2) IC50 values of representative compounds according to the invention measured with these assays in the indicated cell lines are presented in Table 46.

A further series deals with NCI-H727 cells. The series can be described thus: NCI-H727 CTG proliferation assay (120 h) (lung cancer, G12V). It is filed as cell-based. The note with it: Homo sapiens. Here is the method: as §1, with “NCI-H727” for “SK—CO-1”, “No. CRL-5815)” for “HTB-39)”, “RPMI ATCC-Formulation (PAN P04-18047)+10%” for “EMEM (Sigma M5650)+10%”
as §2

A further series relates to Ba/F3 cells KRAS G12V. The series can be described thus: Ba/F3 proliferation assay (KRAS G12V). Type of series: cell-based. Conditions: Mus musculus, BaF3, 72 h, AlamarBlue viability. The procedure, abridged: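 Ba/F3 cells retrovirally transduced with KRAS G12 mutant, puromycin-selected, grown IL-3-independent; seeded in RPMI-1640 + 10% FCS without IL-3. Logarithmic compound dose series in duplicate, 72 h at 37° C., AlamarBlue fluorescence as % of DMSO control; IC50 from four-parameter non-linear regression.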
A general note: Resazurin is reduced to fluorescent resorufin, in cell work by metabolically active cells.

A word on the IC50: it is the concentration needed to halve the response being measured. Low values mean greater potency, high ones weaker potency.

Take `CO[C@H]1CCN(C)[C@@H]1[C@H](C)Oc1nc(-c2onc3c2CCC[C@@]32CCCc3sc(N)c(C#N)c32)nc2c1n(C)c(=O)n2[C@@H]1CCOC1` [I-23]: the “HLM QH” value in series [1] is 77%. In addition, the 50% inhibitory concentration (IC50) came to 6 nM in the series with SK-CO-1 cells, 3 nM with NCI-H727 cells and 2 nM in the series with Ba/F3 cells KRAS G12V.
In the case of `C[C@H](Oc1nc(-c2onc3c2CCC[C@@]32CCCc3sc(N)c(C#N)c32)nc2c1n(C)c(=O)n2C1COC1)[C@@H]1CCCN1C` [I-24], the “HLM QH” value in series [1] is less than 24%. Moreover, the 50% inhibitory concentration (IC50) amounted to 75 nM in the series with SK-CO-1 cells, 35 nM with NCI-H727 cells and 26 nM in the series with Ba/F3 cells KRAS G12V.
The matching figures for `C[C@H](Oc1nc(-c2onc3c2CCC[C@@]32CCCc3sc(N)c(C#N)c32)nc2c1n(C)c(=O)n2[C@@H]1CCOC1)C12CCCN1CCC2` [I-25]: 33%, 11 nM, 9 nM and 7 nM.
The matching figures for `C[C@H](Oc1nc(-c2onc3c2CCC[C@@]32CCCc3sc(N)c(C#N)c32)nc2c1n(C)c(=O)n2[C@@H]1CCOC1)[C@@H]1CC[C@H](C)N1C` [I-26]: 42%, 10 nM, 4 nM and 2 nM.
For the compound `C[C@H](Oc1nc(-c2onc3c2CCC[C@@]32CCCc3sc(N)c(C#N)c32)nc2c1n(C)c(=O)n2[C@@H]1CCOC1)[C@@H]1C[C@H](F)CN1C` [I-27], the “HLM QH” value in series [1] was 58%. Moreover, the IC50 is 55 nM in the series on SK-CO-1 cells, 21 nM in the series with NCI-H727 cells and 13 nM with Ba/F3 cells KRAS G12V.
Take `C[C@H](Oc1nc(-c2onc3c2CCC[C@@]32CCCc3sc(N)c(C#N)c32)nc2c1n(C)c(=O)n2[C@@H]1CCOC1)[C@@H]1C[C@@H]2C[C@@H]2N1C` [I-28]: the “HLM QH” value in series [1] is 52%. In addition, the IC50 was found to be 67 nM in the series with SK-CO-1 cells, 27 nM in the series on NCI-H727 cells and 12 nM in the series on Ba/F3 cells KRAS G12V.
Take `C[C@H](Oc1nc(-c2onc3c2CCC[C@@]32CCCc3sc(N)c(C#N)c32)nc2c1n(C)c(=O)n2[C@@]12COC[C@@H]1C2)[C@@H]1CCCN1C` [I-29]: the “HLM QH” value in series [1] is reported as less than 24%. The IC50 in the series with SK-CO-1 cells, in the series with NCI-H727 cells and in the series with Ba/F3 cells KRAS G12V was 1 nM throughout.
In the case of `CCn1c(=O)n([C@@H]2CCCOC2)c2nc(-c3onc4c3CCC[C@@]43CCCc4sc(N)c(C#N)c43)nc(O[C@@H](C)[C@@H]3CCCN3C)c21` [I-30], the “HLM QH” value in series [1] was 25%. The IC50 with SK-CO-1 cells was determined as 11 nM; in the series with NCI-H727 cells, 6 nM; in the series with Ba/F3 cells KRAS G12V, 5 nM.
As for `CO[C@H]1C[C@@H](n2c(=O)n(C)c3c(O[C@@H](C)[C@@H]4CCCN4C)nc(-c4onc5c4CCC[C@@]54CCCc5sc(N)c(C#N)c54)nc32)C1` [I-31], the “HLM QH” value in series [1] is listed as less than 24%. The IC50 in the series with SK-CO-1 cells was 94 nM; with NCI-H727 cells, 38 nM; in the series on Ba/F3 cells KRAS G12V, 23 nM.
Turning to `CC(C)n1c(=O)n([C@@H]2CCOC2)c2nc(-c3onc4c3CCC[C@@]43CCCc4sc(N)c(C#N)c43)nc(O[C@@H](C)[C@@H]3CCCN3C)c21` [I-32], the “HLM QH” value in series [1] was 88%. In addition, the IC50 was found to be 43 nM with SK-CO-1 cells, 4 nM with NCI-H727 cells and 13 nM with Ba/F3 cells KRAS G12V.
Turning to `CCn1c(=O)n([C@@H]2CCCOC2)c2nc(-c3onc4c3CCC[C@@]43CCCc4sc(N)c(C#N)c43)nc(OC[C@@]34CCCN3C[C@H](F)C4)c21` [I-33], in series [1], the “HLM QH” value is recorded as 48%. In addition, the IC50 in the series with SK-CO-1 cells was determined as 911 nM; with NCI-H727 cells it was 899 nM; with Ba/F3 cells KRAS G12V it was 739 nM.
As for `CCn1c(=O)n([C@@H]2CCCOC2)c2nc(-c3onc4c3CCC[C@@]43CCCc4sc(N)c(C#N)c43)nc(OCC34CCCN3CCC4)c21` [I-34], the “HLM QH” value in series [1] is given as less than 24%. In addition, the IC50 is 273 nM in the series on SK-CO-1 cells, 282 nM in the series on NCI-H727 cells and 553 nM in the series on Ba/F3 cells KRAS G12V.
Regarding `CCn1c(=O)n([C@@H]2CCCOC2)c2nc(-c3onc4c3CCC[C@@]43CCCc4sc(N)c(C#N)c43)nc(OCC3(CN4CCCC4)CC3)c21` [I-35], the “HLM QH” value in series [1] was 53%. Also, the IC50 in the series on SK-CO-1 cells amounted to 185 nM; in the series on NCI-H727 cells, 159 nM; with Ba/F3 cells KRAS G12V, 104 nM.
Take `CCn1c(=O)n([C@@H]2CCCOC2)c2nc(-c3onc4c3CCC[C@@]43CCCc4sc(N)c(C#N)c43)nc(O[C@@H](C)C34CCCN3CCC4)c21` [I-36]: in series [1], the “HLM QH” value is listed as 37%. Besides, the IC50 with SK-CO-1 cells came to 14 nM; with NCI-H727 cells, 21 nM; with Ba/F3 cells KRAS G12V, 18 nM.
The matching figures for `C[C@H](Oc1nc(-c2onc3c2CCC[C@@]32CCCc3sc(N)c(C#N)c32)nc2c1N(C)C(=O)CN2[C@@H]1CCOC1)[C@@H]1CCCN1C` [I-37]: less than 24%, 323 nM, 181 nM and 127 nM.
The like results for `C[C@H](Oc1nc(-c2onc3c2CCC[C@@]32CCCc3sc(N)c(C#N)c32)nc2c1ncn2[C@@H]1CCOC1)[C@@H]1CCCN1C` [I-38] were, in that order, 28%, 32 nM, 34 nM and 20 nM.
The like results for `Cc1nc2c(O[C@@H](C)[C@@H]3CCCN3C)nc(-c3onc4c3CCC[C@@]43CCCc4sc(N)c(C#N)c43)nc2n1[C@@H]1CCOC1` [I-39] were, in that order, 57%, 14 nM, 28 nM and 12 nM.
With `Cc1cc2c(O[C@@H](C)[C@@H]3CCCN3C)nc(-c3onc4c3CCC[C@@]43CCCc4sc(N)c(C#N)c43)nc2n1[C@@H]1CCOC1` [I-40], the “HLM QH” value in series [1] is 37%. Besides, the IC50 is 39 nM with SK-CO-1 cells, 17 nM in the series on NCI-H727 cells and 14 nM in the series with Ba/F3 cells KRAS G12V.
The like results for `Cc1cn([C@@H]2CCOC2)c2nc(-c3onc4c3CCC[C@@]43CCCc4sc(N)c(C#N)c43)nc(O[C@@H](C)[C@@H]3CCCN3C)c12` [I-41] were, in that order, less than 24%, 18 nM, 107 nM and 78 nM.
On to `Cc1nn([C@@H]2CCOC2)c2nc(-c3onc4c3CCC[C@@]43CCCc4sc(N)c(C#N)c43)nc(O[C@@H](C)[C@@H]3CCCN3C)c12` [I-42], for which the “HLM QH” value in series [1] is reported as 36%. The half-inhibitory concentration (IC50) in the series on SK-CO-1 cells was 46 nM; in the series on NCI-H727 cells, 39 nM; with Ba/F3 cells KRAS G12V, 11 nM.
The matching figures for `C[C@H](Oc1nc(-c2onc3c2CCC[C@@]32CCCc3sc(N)c(C#N)c32)nc2c1cnn2[C@@H]1CCOC1)[C@@H]1CCCN1C` [I-43]: less than 24%, 56 nM, 36 nM and 18 nM.
The like results for `C[C@H](Oc1nc(-c2onc3c2CCC[C@@]32CCCc3sc(N)c(C#N)c32)nc2c1n(C)c(=O)n2[C@@]12COC[C@@H]1C2)[C@@H]1CC[C@H](C)N1C` [I-45] were, in that order, 41%, 4 nM, 1 nM and 1 nM.
Take `CO[C@@H]1C[C@@H]([C@H](C)Oc2nc(-c3onc4c3CCC[C@@]43CCCc4sc(N)c(C#N)c43)nc3c2n(C)c(=O)n3[C@@]23COC[C@@H]2C3)N(C)C1` [I-46]: the “HLM QH” value in series [1] is reported as 34%. Besides, the IC50 was found to be 4 nM in the series with SK-CO-1 cells, 2 nM with NCI-H727 cells and 1 nM in the series with Ba/F3 cells KRAS G12V.
`C[C@H](Oc1nc(-c2onc3c2CCC[C@@]32CCCc3sc(N)c(C#N)c32)nc2c1COC[C@]21CCOC1)[C@@H]1CCCN1C` [I-54]: in series [1], the “HLM QH” value is on record as 31%. Moreover, the IC50 is 3 nM in the series with SK-CO-1 cells, 2 nM in the series on NCI-H727 cells and 1 nM in the series with Ba/F3 cells KRAS G12V.
Regarding `C[C@H](Oc1nc(-c2onc3c2CCC[C@@]32CCCc3sc(N)c(C#N)c32)nc2c1CN(C1COC1)C[C@]21CCOC1)[C@@H]1CC[C@H](C)N1C` [I-55], the “HLM QH” value in series [1] was 52%. Also, the IC50 turned out to be 6 nM in the series on SK-CO-1 cells, 3 nM in the series with NCI-H727 cells and 1 nM with Ba/F3 cells KRAS G12V.
Consider `C[C@H](Oc1nc(-c2onc3c2CCC[C@@]32CCCc3sc(N)c(C#N)c32)nc2c1CN(C1COC1)C[C@]21CCOC1)[C@@H]1CCCN1C` [I-56], for which the “HLM QH” value in series [1] is less than 24%. Also, the figures for the IC50 with SK-CO-1 cells, in the series on NCI-H727 cells and in the series with Ba/F3 cells KRAS G12V were 7 nM, 4 nM and 2 nM, respectively.

(Values after patent US20250019385A1, “SPIROCYCLIC ANNULATED 2-AMINO-3-CYANO THIOPHENES AND DERIVATIVES FOR THE TREATMENT OF CANCER” (Boehringer Ingelheim International GmbH, priority 2023, published 2025).)
